# Data published in patent publication US10457686B2, “[1,2,3]triazolo[4,5-D]pyrimidine derivatives” (Hoffmann-La Roche Inc., priority 2016, dated 2019).
# How the values were obtained:
# human CB2 = human CB2 (Homo sapiens (Human), UniProt P34972); test: Radioligand binding assay, human CNR2 (CB2) receptor, [3H]-CP-55,940; settings: membrane preparations of HEK cells expressing human CNR2; 2.6 nM [3H]-CP-55,940
# Procedure: (§1) Radioligand Binding Assay
# (§2) The affinity of the compounds of the invention for cannabinoid receptors was determined using recommended amounts of membrane preparations (PerkinElmer) of human embryonic kidney (HEK) cells expressing the human CNR1 or CNR2 receptors in conjunction with 1.5 or 2.6 nM [3H]-CP-55,940 (Perkin Elmer) as radioligand, respectively. Binding was performed in binding buffer (50 mM Tris, 5 mM MgCl2, 2.5 mM EDTA, and 0.5% (wt/vol) fatty acid free BSA, pH 7.4 for CB1 receptor and 50 mM Tris, 5 mM MgCl2, 2.5 mM EGTA, and 0.1% (wt/vol) fatty acid free BSA, pH 7.4 for CB2 receptor) in a total volume of 0.2 mL for 1 h at 30° C. shaking. The reaction was terminated by rapid filtration through microfiltration plates coated with 0.5% polyethylenimine (UniFilter GF/B filter plate; Packard). Bound radioactivity was analyzed for Ki using nonlinear regression analysis (Activity Base, ID Business Solution, Limited), with the Kd values for [^3H]CP55,940 determined from saturation experiments.
# The compounds according to formula (I) have an activity in the above assay (Ki) particularly of 0.5 nM to 10 μM, more particularly of 0.5 nM to 3 μM and most particularly of 0.5 nM to 100 nM.
# human CB1 = human CB1 (Homo sapiens (Human), UniProt P21554); test: Radioligand binding assay, human CNR1 (CB1) receptor, [3H]-CP-55,940; settings: membrane preparations of HEK cells expressing human CNR1; 1.5 nM [3H]-CP-55,940
# Sequence of human CB1 (P21554 whole entry): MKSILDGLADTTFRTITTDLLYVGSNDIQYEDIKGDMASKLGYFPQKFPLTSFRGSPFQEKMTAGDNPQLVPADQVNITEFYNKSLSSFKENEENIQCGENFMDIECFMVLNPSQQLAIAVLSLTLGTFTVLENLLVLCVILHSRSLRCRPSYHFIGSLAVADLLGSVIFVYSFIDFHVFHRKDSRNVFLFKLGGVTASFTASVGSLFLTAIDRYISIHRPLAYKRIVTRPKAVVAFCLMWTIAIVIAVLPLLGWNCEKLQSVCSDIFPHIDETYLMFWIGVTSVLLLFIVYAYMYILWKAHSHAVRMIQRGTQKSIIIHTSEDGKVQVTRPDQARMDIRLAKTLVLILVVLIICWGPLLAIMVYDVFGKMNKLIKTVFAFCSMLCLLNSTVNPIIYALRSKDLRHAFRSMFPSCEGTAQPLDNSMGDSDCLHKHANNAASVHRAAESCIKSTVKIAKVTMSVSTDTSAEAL
# Procedure: as §1, §2
# Sequence of human CB2 (P34972 whole entry): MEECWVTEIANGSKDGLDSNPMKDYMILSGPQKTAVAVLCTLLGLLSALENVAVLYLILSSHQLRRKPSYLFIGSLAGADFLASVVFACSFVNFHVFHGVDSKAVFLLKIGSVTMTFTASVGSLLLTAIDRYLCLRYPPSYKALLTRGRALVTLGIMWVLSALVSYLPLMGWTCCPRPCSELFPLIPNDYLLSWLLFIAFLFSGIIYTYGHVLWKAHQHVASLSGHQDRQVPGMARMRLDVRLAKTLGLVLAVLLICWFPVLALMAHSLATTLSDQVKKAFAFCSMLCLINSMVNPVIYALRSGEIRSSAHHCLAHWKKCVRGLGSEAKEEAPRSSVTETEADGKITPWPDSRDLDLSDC
Compound,Ki (human CB2) [µM],Ki (human CB1) [µM]
"C#CCCC1(CCNC(=O)c2nonc2Cn2nc3nc(C(C)(C)C)nc(N4CCC(F)(F)C4)c3n2)N=N1 [Example 2, 4-{[5-tert-Butyl-7-(3,3-difluoropyrrolidin-1-yl)-2H-[1,2,3]triazolo[4,5-d]pyrimidin-2-yl]methyl}-N-{2-[3-(but-3-yn-1-yl)-3H-diaziren-3-yl]ethyl}-1,2,5-oxadiazole-3-carboxamide]",0.932,> 10
"C#CCCC1(CCNC(=O)c2nonc2Cn2nc3nc(C(C)(C)C)nc(N4CC[C@H](O)C4)c3n2)N=N1 [Example 3, 4-({5-tert-Butyl-7-[(3S)-3-hydroxypyrrolidin-1-yl]-2H-[1,2,3]triazolo[4,5-d]pyrimidin-2-yl}methyl)-N-{2-[3-(but-3-yn-1-yl)-3H-diaziren-3-yl]ethyl}-1,2,5-oxadiazole-3-carboxamide]",2.86,> 10
"C#Cc1cccc(C2(C(F)(F)F)N=N2)c1Cn1nc2nc(C(F)(F)c3ccccc3)nc(N3CCC(F)(F)C3)c2n1 [Example 4, 5-[Difluoro(phenyl)methyl]-7-(3,3-difluoropyrrolidin-1-yl)-2-[[2-ethynyl-6-[3-(trifluoromethyl)diazirin-3-yl]phenyl]methyl]triazolo[4,5-d]pyrimidine]",1.07,> 10
"C#Cc1cccc(C2(C(F)(F)F)N=N2)c1Cn1nc2nc(C(C)(C)C)nc(N3CCC(F)(F)C3)c2n1 [Example 5, 5-tert-Butyl-7-(3,3-difluoropyrrolidin-1-yl)-2-[[2-ethynyl-6-[3-(trifluoromethyl)diazirin-3-yl]phenyl]methyl]triazolo[4,5-d]pyrimidine]",0.0814,0.583
"C#Cc1cccc(C2(C(F)(F)F)N=N2)c1Cn1nc2nc(C(C)(C)C)nc(N3CC[C@H](O)C3)c2n1 [Example 6, (3S)-1-[5-tert-Butyl-2-[[2-ethynyl-6-[3-(trifluoromethyl)diazirin-3-yl]phenyl]methyl]triazolo[4,5-d]pyrimidin-7-yl]pyrrolidin-3-ol]",0.0992,> 10
"C#Cc1cccc(C2(C(F)(F)F)N=N2)c1Cn1nc2nc(C(F)(F)c3ccccc3)nc(N3CC[C@H](O)C3)c2n1 [Example 7, (3S)-1-[5-[Difluoro(phenyl)methyl]-2-[[2-ethynyl-6-[3-(trifluoromethyl)diazirin-3-yl]phenyl]methyl]triazolo[4,5-d]pyrimidin-7-yl]pyrrolidin-3-ol]",0.358,5.46
